Laboratory results published in the NIST ThermoML archive (doi:10.1021/je900722m).

Test: xn = mol fraction of the nth substance listed
Conditions: 101 kPa, Liquid

CC(C)(C)O [2-methylpropan-2-ol] + CCCCO
Conditions | mass density [kg/m3] | viscosity [mPa·s]
308.15 K, x2 = 0.1017 | 774.752 | 3.438
308.15 K, x2 = 0.2006 | 778.293 | 3.374
308.15 K, x2 = 0.3008 | 781.316 | 3.302
308.15 K, x2 = 0.4005 | 784.068 | 3.22
308.15 K, x2 = 0.5011 | 786.651 | 3.125
308.15 K, x2 = 0.6002 | 789.119 | 3.021
308.15 K, x2 = 0.6975 | 791.52 | 2.912
308.15 K, x2 = 0.7987 | 793.957 | 2.791
308.15 K, x2 = 0.8978 | 796.247 | 2.667
313.15 K, x2 = 0.1017 | 769.698 | 2.787
313.15 K, x2 = 0.2006 | 773.439 | 2.763
313.15 K, x2 = 0.3008 | 776.66 | 2.733
313.15 K, x2 = 0.4005 | 779.566 | 2.693
313.15 K, x2 = 0.5011 | 782.289 | 2.64
313.15 K, x2 = 0.6002 | 784.884 | 2.577
313.15 K, x2 = 0.6975 | 787.385 | 2.508
313.15 K, x2 = 0.7987 | 789.899 | 2.429
313.15 K, x2 = 0.8978 | 792.264 | 2.347
318.15 K, x2 = 0.1017 | 764.541 | 2.299
318.15 K, x2 = 0.2006 | 768.484 | 2.302
318.15 K, x2 = 0.3008 | 771.902 | 2.298
318.15 K, x2 = 0.4005 | 774.974 | 2.284
318.15 K, x2 = 0.5011 | 777.844 | 2.258
318.15 K, x2 = 0.6002 | 780.565 | 2.223
318.15 K, x2 = 0.6975 | 783.18 | 2.182
318.15 K, x2 = 0.7987 | 785.795 | 2.131
318.15 K, x2 = 0.8978 | 788.241 | 2.076
323.15 K, x2 = 0.1017 | 759.283 | 1.922
323.15 K, x2 = 0.2006 | 763.421 | 1.942
323.15 K, x2 = 0.3008 | 767.037 | 1.956
323.15 K, x2 = 0.4005 | 770.272 | 1.957
323.15 K, x2 = 0.5011 | 773.307 | 1.95
323.15 K, x2 = 0.6002 | 776.162 | 1.934
323.15 K, x2 = 0.6975 | 778.901 | 1.91
323.15 K, x2 = 0.7987 | 781.617 | 1.877
323.15 K, x2 = 0.8978 | 784.158 | 1.841
328.15 K, x2 = 0.1017 | 753.923 | 1.635
328.15 K, x2 = 0.2006 | 758.252 | 1.666
328.15 K, x2 = 0.3008 | 762.068 | 1.69
328.15 K, x2 = 0.4005 | 765.483 | 1.704
328.15 K, x2 = 0.5011 | 768.677 | 1.709
328.15 K, x2 = 0.6002 | 771.695 | 1.704
328.15 K, x2 = 0.6975 | 774.542 | 1.692
328.15 K, x2 = 0.7987 | 777.372 | 1.672
328.15 K, x2 = 0.8978 | 780.002 | 1.65
333.15 K, x2 = 0.1017 | 748.453 | 1.406
333.15 K, x2 = 0.2006 | 752.974 | 1.439
333.15 K, x2 = 0.3008 | 756.986 | 1.466
333.15 K, x2 = 0.4005 | 760.579 | 1.486
333.15 K, x2 = 0.5011 | 763.946 | 1.5
333.15 K, x2 = 0.6002 | 767.111 | 1.504
333.15 K, x2 = 0.6975 | 770.1 | 1.501
333.15 K, x2 = 0.7987 | 773.05 | 1.492
333.15 K, x2 = 0.8978 | 775.796 | 1.478
338.15 K, x2 = 0.1017 | 742.882 | 1.221
338.15 K, x2 = 0.2006 | 747.587 | 1.254
338.15 K, x2 = 0.3008 | 751.795 | 1.282
338.15 K, x2 = 0.4005 | 755.568 | 1.306
338.15 K, x2 = 0.5011 | 759.113 | 1.324
338.15 K, x2 = 0.6002 | 762.433 | 1.335
338.15 K, x2 = 0.6975 | 765.569 | 1.339
338.15 K, x2 = 0.7987 | 768.651 | 1.34
338.15 K, x2 = 0.8978 | 771.52 | 1.335
343.15 K, x2 = 0.1017 | 737.201 | 1.07
343.15 K, x2 = 0.2006 | 742.083 | 1.103
343.15 K, x2 = 0.3008 | 746.492 | 1.131
343.15 K, x2 = 0.4005 | 750.446 | 1.156
343.15 K, x2 = 0.5011 | 754.166 | 1.177
343.15 K, x2 = 0.6002 | 757.655 | 1.191
343.15 K, x2 = 0.6975 | 760.941 | 1.2
343.15 K, x2 = 0.7987 | 764.169 | 1.207
343.15 K, x2 = 0.8978 | 767.155 | 1.208
